Assay results: patent US8883480B2 (priority 2008, dated 2014)
Bridge positions count the residues as written; N and C are the ends. Peptide text beside a SMILES is read from it.

What was measured:
AIV H9N2 = test system: AIV H9N2; set-up: species or system avian influenza virus H9N2; settings: in vivo
[1] = test system: avian influenza virus H9N2; assay type: cell-based
[2] = molecular target: avian influenza virus (AIV) subtype H9N2, purified whole virus particles; experiment: cell-based or functional assay
Streptavidin = Streptavidin (Streptomyces avidinii, UniProt P22629); assay type: binding
Streptavidin, sequence (P22629 25-183, species assumed): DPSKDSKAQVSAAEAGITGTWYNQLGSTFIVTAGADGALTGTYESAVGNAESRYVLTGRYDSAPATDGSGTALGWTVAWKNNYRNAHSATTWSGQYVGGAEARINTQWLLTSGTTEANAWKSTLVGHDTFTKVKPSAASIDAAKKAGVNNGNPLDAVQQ

Molecule | AIV titer in the allantoic fluid (haemagglutination titer) (AIV H9N2) | Agglutination of RBC (+AIV 32 HAU; 50 μl) [1] | Agglutination of RBC (−AIV 32 HAU; 50 μl) [1] | Frequency of sequences (%) (Streptavidin) | further results
C[C@@H](O)[C@@H]1NC(=O)[C@H](CCCCN)NC(=O)[C@H](CO)NC(=O)[C@H](CCCNC(=N)N)NC(=O)[C@H](Cc2ccccc2)NC(=O)[C@H](CC(=O)O)NC(=O)[C@H](CC(N)=O)NC(=O)[C@@H](N)CSSC[C@@H](C(=O)O)NC1=O [CNDFRSKTC] (H-CNDFRSKTC-OH; disulfide 1-9 (inferred); N-terminus and C-terminus assumed) | reduced the AIV titer | No and Yes | No | – | IC50 (AIV H9N2; read-out: IC50, inhibition of propagation of AIV H9N2): < 100 µM
synthetic linear peptide NDFRSKT | – | – | – | – | IC50 [2]: < 100 µM
NDFRSKT | reduced the AIV titer | No and Yes | No | – | –
HPQFLSL | – | – | – | 55 | –
GLYNHPQ | – | – | – | 27 | –
